Assay results taken from patent US6737383B1, “Herbicidal oxadiazolidines” (priority 1999, dated 2004).

Tests used:
[1] = test system: bedstraw; test: Test B pre/postemergence bedstraw; type: in vivo, Galium aparine; settings: Preemergence
Method in brief: (§1)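 Herbicidal effect was estimated by eye on a ten-point control scale after plants spent twelve to sixteen days in a greenhouse following soil or foliar treatment. Foliar sprays targeted plants at one to four leaves; all doses were formulated in a non-phytotoxic solvent with surfactant.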

[2] = test system: blackgrass; test: Test B pre/postemergence blackgrass; type: in vivo, Alopecurus myosuroides; settings: for Blackgrass plant response rating: scale of 0 to 10 where 0 is no effect and 10 is complete control
Method in brief: as §1

[3] = test system: surinam grass; test: Test B pre/postemergence surinam grass; type: in vivo, Brachiaria decumbens; settings: for B. signalgrass plant response rating: scale of 0 to 10 where 0 is no effect and 10 is complete control
Method in brief: as §1

[4] = test system: corn; test: Test B pre/postemergence corn; type: in vivo, Zea mays; settings: for Corn plant response rating: scale of 0 to 10 where 0 is no effect and 10 is complete control
Method in brief: as §1

[5] = test system: crabgrass; test: Test B pre/postemergence crabgrass; type: in vivo, Digitaria sanguinalis; settings: for Crabgrass plant response rating: scale of 0 to 10 where 0 is no effect and 10 is complete control
Method in brief: as §1

[6] = test system: pigweed; test: Test B pre/postemergence pigweed; type: in vivo, Amaranthus retroflexus; settings: for Redroot pigweed plant response rating: scale of 0 to 10 where 0 is no effect and 10 is complete control
Method in brief: as §1

[7] = test system: rape; test: Test B pre/postemergence rape; type: in vivo, Brassica napus; settings: for Rape plant response rating: scale of 0 to 10 where 0 is no effect and 10 is complete control
Method in brief: as §1

[8] = test system: soybean; test: Test B pre/postemergence soybean; type: in vivo, Glycine max; settings: for Soybean plant response rating: scale of 0 to 10 where 0 is no effect and 10 is complete control
Method in brief: as §1

[9] = test system: sugar beet; test: Test B pre/postemergence sugar beet; type: in vivo, Beta vulgaris; settings: for Sugarbeets plant response rating: scale of 0 to 10 where 0 is no effect and 10 is complete control
Method in brief: as §1

[10] = test system: velvetleaf; test: Test B pre/postemergence velvetleaf; type: in vivo, Abutilon theophrasti; settings: for Velvetleaf plant response rating: scale of 0 to 10 where 0 is no effect and 10 is complete control
Method in brief: as §1

[11] = test system: wheat; test: Test B pre/postemergence wheat; type: in vivo, Triticum aestivum; settings: for Wheat plant response rating: scale of 0 to 10 where 0 is no effect and 10 is complete control
Method in brief: as §1

[12] = test system: wild oat; test: Test B pre/postemergence wild oat; type: in vivo, Avena fatua; settings: for Wild oats plant response rating: scale of 0 to 10 where 0 is no effect and 10 is complete control
Method in brief: as §1

[13] = test system: purple nutsedge; test: Test B pre/postemergence purple nutsedge; type: in vivo, Cyperus rotundus; settings: for Nutsedge plant response rating: scale of 0 to 10 where 0 is no effect and 10 is complete control
Method in brief: as §1

[14] = test system: rice; test: Test B flood test rice; type: in vivo, Oryza sativa
Method in brief: (§2)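 Flood test on plants grown to the 2-leaf stage; treated plants kept in greenhouse twelve to sixteen days, then visually rated against controls on a 0 (no effect) to 10 (complete control) scale.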

[15] = test system: smallflower flatsedge; test: Test B flood test smallflower flatsedge; type: in vivo, Cyperus difformis
Method in brief: as §2

[16] = test system: duck salad; test: Test B flood test duck salad; type: in vivo, Heteranthera limosa
Method in brief: as §2

[17] = Postemergence, Rate 125 g/ha, scale 0 to 10, 0 is no effect, 10 is complete control
[18] = Postemergence, Rate 250 g/ha, scale 0 to 10, 0 is no effect, 10 is complete control
[19] = Preemergence, Rate 62 g/ha, scale 0 to 10 (0 no effect, 10 complete control)
[20] = Rate 500 g/ha, Postemergence, scale 0 to 10, 0 no effect, 10 complete control
[21] = Rate 62 g/ha, flood test species, Pre-emergence, visual evaluation after twelve to sixteen days
[22] = Rate 125 g/ha, under heading Pre-emergence, flood test species, visual evaluation after twelve to sixteen days
[23] = Rate 250 g/ha, Pre-emergence, flood-test species, scale 0 to 10, 0 is no effect, 10 is complete control
[24] = Rate 500 g/ha, Pre-emergence, flood test species, scale 0 to 10 (0 no effect, 10 complete control)

With Cc1nsc(Cl)c1Cn1c(=O)on(C(=O)N(c2ccc(F)cc2)C(C)C)c1=O [Compound 373] the “Plant response rating, Bedstraw” value ([1]; Rate 62 g/ha, scale 0 to 10 (0 no effect, 10 complete control)) was 0, the “Bedstraw plant response rating (0 to 10 scale)” value ([1]; Rate 125 g/ha) was 0 and the “Bedstraw plant response rating” value ([1]; Rate 500 g/ha, scale of 0 to 10 where 0 is no effect and 10 is complete control) was 0. For the same compound, the “Plant response rating, Blackgrass” value [2, 17] was 0, the “Plant response rating, Blackgrass” value [2, 18] was 0 and the “Plant response rating, Blackgrass” value [2, 19] was 1. The “Blackgrass plant response rating (0 to 10 scale)” value ([2]; Preemergence, Rate 125 g/ha) was 3, the “Blackgrass plant response rating” value ([2]; Preemergence, Rate 250 g/ha) was 5 and the “Blackgrass plant response rating” value ([2]; Preemergence, Rate 500 g/ha) was 7. The “Blackgrass plant response rating” value ([2]; Rate 62 g/ha, Postemergence) was 0, the “Plant response rating, Blackgrass” value [2, 20] was 0 and the “Plant response rating, B. signalgrass” value [3, 17] was 0. The “Plant response rating, B. signalgrass” value [3, 18] was 0, the “Plant response rating, B. signalgrass” value [3, 19] was 0 and the “B. signalgrass plant response rating (0 to 10 scale, 0 is no effect, 10 is complete control)” value ([3]; Preemergence, Rate 125 g/ha) was 0. For the same compound, the “B. signalgrass plant response rating” value ([3]; Preemergence, Rate 250 g/ha) was 0, the “B. signalgrass plant response rating” value ([3]; Preemergence, Rate 500 g/ha) was 2 and the “B. signalgrass plant response rating” value ([3]; Rate 62 g/ha, Postemergence) was 0. The “Plant response rating, B. signalgrass” value [3, 20] was 0, the “Plant response rating, Corn” value [4, 17] was 0 and the “Plant response rating, Corn” value [4, 18] was 0. For the same compound, the “Plant response rating, Corn” value [4, 19] was 0, the “Corn plant response rating (0 to 10 scale)” value ([4]; Preemergence, Rate 125 g/ha) was 0 and the “Corn plant response rating” value ([4]; Preemergence, Rate 250 g/ha) was 3. For the same compound, the “Corn plant response rating” value ([4]; Preemergence, Rate 500 g/ha) was 3, the “Corn plant response rating” value ([4]; Rate 62 g/ha, Postemergence) was 0 and the “Plant response rating, Corn” value [4, 20] was 0. For the same compound, the “Plant response rating, Crabgrass” value [5, 17] was 0, the “Plant response rating, Crabgrass” value [5, 18] was 1 and the “Plant response rating, Crabgrass” value [5, 19] was 4. The “Crabgrass plant response rating (0 to 10 scale)” value ([5]; Preemergence, Rate 125 g/ha) was 7, the “Crabgrass plant response rating” value ([5]; Preemergence, Rate 250 g/ha) was 10 and the “Crabgrass plant response rating” value ([5]; Preemergence, Rate 500 g/ha) was 10. The “Crabgrass plant response rating” value ([5]; Rate 62 g/ha, Postemergence) was 0, the “Plant response rating, Crabgrass” value [5, 20] was 2 and the “Plant response rating, Redroot pigweed” value [6, 17] was 3. For the same compound, the “Plant response rating, Redroot pigweed” value [6, 18] was 4, the “Plant response rating, Redroot pigweed” value [6, 19] was 0 and the “Redroot pigweed plant response rating (0 to 10 scale)” value ([6]; Preemergence, Rate 125 g/ha) was 3. The “Redroot pigweed plant response rating” value ([6]; Preemergence, Rate 250 g/ha) was 7, the “Redroot pigweed plant response rating” value ([6]; Preemergence, Rate 500 g/ha) was 10 and the “Redroot pigweed plant response rating” value ([6]; Rate 62 g/ha, Postemergence) was 2. The “Plant response rating, Redroot pigweed” value [6, 20] was 6, the “Plant response rating, Rape” value [7, 17] was 1 and the “Plant response rating, Rape” value [7, 18] was 2. The “Plant response rating, Rape” value [7, 19] was 0, the “Rape plant response rating (0 to 10 scale)” value ([7]; Preemergence, Rate 125 g/ha) was 0 and the “Rape plant response rating” value ([7]; Preemergence, Rate 250 g/ha) was 0. The “Rape plant response rating” value ([7]; Rate 62 g/ha, Postemergence) was 0, the “Plant response rating, Rape” value [7, 20] was 5 and the “Plant response rating, Soybean” value [8, 17] was 3. For the same compound, the “Plant response rating, Soybean” value [8, 18] was 4, the “Plant response rating, Soybean” value [8, 19] was 0 and the “Soybean plant response rating (0 to 10 scale)” value ([8]; Preemergence, Rate 125 g/ha) was 0. The “Soybean plant response rating” value ([8]; Preemergence, Rate 250 g/ha) was 0, the “Soybean plant response rating” value ([8]; Preemergence, Rate 500 g/ha) was 2 and the “Soybean plant response rating” value ([8]; Rate 62 g/ha, Postemergence) was 3. For the same compound, the “Plant response rating, Soybean” value [8, 20] was 4, the “Plant response rating, Sugarbeets” value [9, 17] was 0 and the “Plant response rating, Sugarbeets” value [9, 18] was 1. The “Plant response rating, Sugarbeets” value [9, 19] was 0, the “Sugarbeets plant response rating (0 to 10 scale)” value ([9]; Preemergence, Rate 125 g/ha) was 0 and the “Sugarbeets plant response rating” value ([9]; Preemergence, Rate 250 g/ha) was 4. The “Sugarbeets plant response rating” value ([9]; Preemergence, Rate 500 g/ha) was 7, the “Sugarbeets plant response rating” value ([9]; Rate 62 g/ha, Postemergence) was 0 and the “Plant response rating, Sugarbeets” value [9, 20] was 4. The “Plant response rating, Velvetleaf” value [10, 17] was 0, the “Plant response rating, Velvetleaf” value [10, 18] was 1 and the “Plant response rating, Velvetleaf” value [10, 19] was 0. For the same compound, the “Velvetleaf plant response rating (0 to 10 scale)” value ([10]; Preemergence, Rate 125 g/ha) was 0, the “Velvetleaf plant response rating” value ([10]; Preemergence, Rate 250 g/ha) was 0 and the “Velvetleaf plant response rating” value ([10]; Preemergence, Rate 500 g/ha) was 0. For the same compound, the “Velvetleaf plant response rating” value ([10]; Rate 62 g/ha, Postemergence) was 0, the “Plant response rating, Velvetleaf” value [10, 20] was 2 and the “Plant response rating, Wheat” value [11, 17] was 0. For the same compound, the “Plant response rating, Wheat” value [11, 18] was 0, the “Plant response rating, Wheat” value [11, 19] was 0 and the “Wheat plant response rating (0 to 10 scale)” value ([11]; Preemergence, Rate 125 g/ha) was 0. The “Wheat plant response rating” value ([11]; Preemergence, Rate 250 g/ha) was 0, the “Wheat plant response rating” value ([11]; Preemergence, Rate 500 g/ha) was 0 and the “Wheat plant response rating” value ([11]; Rate 62 g/ha, Postemergence) was 0. For the same compound, the “Plant response rating, Wheat” value [11, 20] was 0, the “Plant response rating, Wild oats” value [12, 17] was 0 and the “Plant response rating, Wild oats” value [12, 18] was 0. The “Plant response rating, Wild oats” value [12, 19] was 0, the “Wild oats plant response rating (0 to 10 scale)” value ([12]; Preemergence, Rate 125 g/ha) was 0 and the “Wild oats plant response rating” value ([12]; Preemergence, Rate 250 g/ha) was 0. For the same compound, the “Wild oats plant response rating” value ([12]; Preemergence, Rate 500 g/ha) was 0, the “Wild oats plant response rating” value ([12]; Rate 62 g/ha, Postemergence) was 0 and the “Plant response rating, Wild oats” value [12, 20] was 0. For the same compound, the “Plant response rating, Nutsedge” value [13, 17] was 0, the “Plant response rating, Nutsedge” value [13, 18] was 0 and the “Plant response rating, Nutsedge” value [13, 19] was 0. The “Nutsedge plant response rating (0 to 10 scale)” value ([13]; Preemergence, Rate 125 g/ha) was 0, the “Nutsedge plant response rating” value ([13]; Preemergence, Rate 250 g/ha) was 0 and the “Nutsedge plant response rating” value ([13]; Preemergence, Rate 500 g/ha) was 0. The “Nutsedge plant response rating” value ([13]; Rate 62 g/ha, Postemergence) was 0, the “Plant response rating, Nutsedge” value [13, 20] was 0 and the “Plant response rating, Rice (0 to 10 scale, 0 is no effect, 10 is complete control)” value [14, 21] was 0. For the same compound, the “Rice plant response rating (0 to 10 scale, 0 is no effect, 10 is complete control)” value [14, 22] was 0, the “Rice plant response rating” value [14, 23] was 0 and the “Rice plant response rating” value [14, 24] was 0. For the same compound, the “Plant response rating, S. Flatsedge (0 to 10 scale, 0 is no effect, 10 is complete control)” value [15, 21] was 0, the “S. Flatsedge plant response rating (0 to 10 scale, 0 is no effect, 10 is complete control)” value [15, 22] was 0 and the “S. Flatsedge plant response rating” value [15, 23] was 0. The “S. Flatsedge plant response rating” value [15, 24] was 0, the “Plant response rating, Ducksalad (0 to 10 scale, 0 is no effect, 10 is complete control)” value [16, 21] was 0 and the “Ducksalad plant response rating (0 to 10 scale, 0 is no effect, 10 is complete control)” value [16, 22] was 0. The “Ducksalad plant response rating” value [16, 23] was 0 and the “Ducksalad plant response rating” value [16, 24] was 0.
